In US10633407B2, “14-membered ketolides and methods of their preparation and use” (President and Fellows of Harvard College, priority 2014, dated 2020):
In brackets after ≈: the same amount, converted by molar mass.

Legend:
Assay type in all cases: cell-based
[1] = tested on: E. faecalis Vancomycin-resistant; test: CLSI broth dilution MIC determination; conditions: Enterococcus faecalis, E. faecalis Vancomycin-resistant (UNT-039); read-out: MIC
A. baumannii ATCC 19606 = test: CLSI broth dilution MIC determination; conditions: Acinetobacter baumannii, ATCC19606; A. baumannii ATCC 19606 (MP-15); read-out: MIC
[2] = tested on: A. baumannii MP-577 Clinical-AZT low; test: CLSI broth dilution MIC determination; conditions: Acinetobacter baumannii, read-out: MIC
[3] = tested on: strains of B. subtilis, E. coli, S. aureus, S. pneumoniae, and H. influenzae, including several multidrug-resistant strains; test: CLSI broth dilution MIC determination, whole panel of strains; conditions: from MIC data, Tables B1-B13
Text: MIC data was collected for the novel macrolides that this platform has produced against over 21 unique strains of B. subtilis, E. coli, S. aureus, S. pneumoniae, and H. influenzae, including several multidrug-resistant strains, with a special focus on macrolide resistant mechanisms (vide supra). Azithromycin (Azithro) and Solithromycin (Solithro) were included as a control macrolides in many cases. CLSI standard procedures for broth dilution MIC determination were used. […] These genotypes can be constitutive or inducible.

E. coli ATCC 25922 = test: CLSI broth dilution MIC determination; conditions: Escherichia coli, ATCC25922, E. coli ATCC 25922 (MP-4); read-out: MIC
Outline: (§1)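 Broth dilution per CLSI standards; azithromycin and solithromycin run as control macrolides in many cases. Resistance genotypes constitutive or inducible.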

S. aureus erm A genotype = test: CLSI broth dilution MIC determination; conditions: Staphylococcus aureus; S. aureus erm A genotype (MP-620 UNT-146); read-out: MIC
Outline: as §1

[4] = tested on: E. coli MP-9 ATCC25922:tolC; test: CLSI broth dilution MIC determination; conditions: Escherichia coli, ATCC25922
Outline: as §1

S. aureus MRSA: USA100 = test: CLSI broth dilution MIC determination; conditions: Staphylococcus aureus; S. aureus MRSA: USA100 (MP-618 UNT-096); read-out: MIC
Outline: as §1

S. pneumoniae ATCC 49619 = test: CLSI broth dilution MIC determination; conditions: Streptococcus pneumoniae, ATCC49619, S. pneumoniae ATCC 49619 (MP-21); read-out: MIC
Outline: as §1

[5] = tested on: S. aureus MP-17 ATCCBAA-977 (BAA 977 iErm); test: CLSI broth dilution MIC determination; conditions: Staphylococcus aureus; S. aureus MP-17, ATCCBAA-977, iErm; read-out: MIC
Outline: as §1

[6] = tested on: S. aureus (MRSA) MP-513 ST-228 cErm (Clinical-cErm); test: CLSI broth dilution MIC determination; conditions: Staphylococcus aureus, read-out: MIC
Outline: as §1

S. aureus ATCC 29213 = test: CLSI broth dilution MIC determination; conditions: Staphylococcus aureus, ATCC29213; S. aureus ATCC 29213 (MP-12); read-out: MIC
Outline: as §1

S. aureus MRSA: USA300 = test: CLSI broth dilution MIC determination; conditions: Staphylococcus aureus; S. aureus MRSA: USA300 (MP-549, msr(a)); read-out: MIC
Outline: as §1

[7] = tested on: S. pneumoniae mef A genotype (second strain so labelled); test: CLSI broth dilution MIC determination; conditions: Streptococcus pneumoniae, second strain (MP-627 UNT-039), read-out: MIC
Outline: as §1

S. aureus USA600, GISA = test: CLSI broth dilution MIC determination; conditions: Staphylococcus aureus; S. aureus USA600, GISA (MP-619 UNT-120); read-out: MIC
Outline: as §1

[8] = tested on: E. coli MP-532 clinical-cErmB; test: CLSI broth dilution MIC determination; conditions: Escherichia coli
Outline: as §1

[9] = tested on: S. pneumoniae mef A genotype (first strain so labelled); test: CLSI broth dilution MIC determination; conditions: Streptococcus pneumoniae, first strain (MP-626 UNT-038)
Outline: as §1

E. coli MP-541 clinical = test: CLSI broth dilution MIC determination; conditions: Escherichia coli, MP541CLINICAL, read-out: MIC
Outline: as §1

P. aeruginosa ATCC 27853 = test: CLSI broth dilution MIC determination; conditions: Pseudomonas aeruginosa, ATCC27853; P. aeruginosa ATCC 27853 (MP-3); read-out: MIC
S. pyogenes ATCC 19615 = test: CLSI broth dilution MIC determination; conditions: Streptococcus pyogenes, ATCC19615, S. pyogenes ATCC 19615 (MP-19); read-out: MIC
[10] = tested on: S. pyogenes Macrolide-resistant; test: CLSI broth dilution MIC determination; conditions: Streptococcus pyogenes, S. pyogenes Macrolide-resistant (MP-625 UNT-014); read-out: MIC
[11] = tested on: A. baumannii MP-576 Clinical-MDR; test: CLSI broth dilution MIC determination; conditions: Acinetobacter baumannii, read-out: MIC
[12] = tested on: K. pneumoniae MP-546 Clinical-MDR; test: CLSI broth dilution MIC determination; conditions: Klebsiella pneumoniae, read-out: MIC
K. pneumoniae ATCC 10031 = test: CLSI broth dilution MIC determination; conditions: Klebsiella pneumoniae, ATCC10031, K. pneumoniae ATCC 10031 (MP-14); read-out: MIC
[13] = tested on: K. pneumoniae MP-548 clinical; test: CLSI broth dilution MIC determination; conditions: Klebsiella pneumoniae, MP548CLINICAL, read-out: MIC
P. aeruginosa MP-7 PAO1 = test: CLSI broth dilution MIC determination; conditions: Pseudomonas aeruginosa, read-out: MIC
E. faecalis ATCC 29212 = test: CLSI broth dilution MIC determination; conditions: Enterococcus faecalis, ATCC29212, E. faecalis ATCC 29212 (MP-24); read-out: MIC
[14] = tested on: P. aeruginosa MP-8 PAO1:mex (mex-oprM-deletion); test: CLSI broth dilution MIC determination; conditions: Pseudomonas aeruginosa, PAO1

## CC[C@H]1OC(=O)[C@@](C)(F)C(=O)[C@H](C)[C@@H](O[C@@H]2OC(C)CC(N(C)C)C2O)[C@](C)(OC)C[C@@H](C)C(=O)[C@H](C)[C@H]2N(CC#CCn3cc(-c4cccc(N)n4)nn3)C(=O)O[C@]12C (stereo partly shown) [FSM-100573]
[1]
  MIC: 1 µg/mL (≈ 1.19 µM)
A. baumannii ATCC 19606
  MIC: 2 µg/mL (≈ 2.38 µM)
[2]
  MIC: 16 µg/mL (≈ 19 µM)
[3]
  potency compared with solithromycin: even more potent
E. coli ATCC 25922
  MIC: 8 µg/mL (≈ 9.5 µM)
S. aureus erm A genotype
  MIC: 16 µg/mL (≈ 19 µM)
[4]
  MIC: 2 µg/mL (≈ 2.38 µM)
S. aureus MRSA: USA100
  MIC: 16 µg/mL (≈ 19 µM)
S. pneumoniae ATCC 49619
  MIC: < 0.03 µg/mL
[5]
  MIC: 0.06 µg/mL (≈ 0.0713 µM)
[6]
  MIC: 16 µg/mL (≈ 19 µM)
S. aureus ATCC 29213
  MIC: 0.06 µg/mL (≈ 0.0713 µM)
S. aureus MRSA: USA300
  MIC: 0.06 µg/mL (≈ 0.0713 µM)
[7]
  MIC: < 0.03 µg/mL
S. aureus USA600, GISA
  MIC: 16 µg/mL (≈ 19 µM)
[8]
  MIC: 64 µg/mL (≈ 76 µM)
[9]
  MIC: < 0.03 µg/mL
E. coli MP-541 clinical
  MIC: 16 µg/mL (≈ 19 µM)
P. aeruginosa ATCC 27853
  MIC: 16 µg/mL (≈ 19 µM)
S. pyogenes ATCC 19615
  MIC: < 0.03 µg/mL
[10]
  MIC: < 0.03 µg/mL
[11]
  MIC: 64 µg/mL (≈ 76 µM)
[12]
  MIC: 64 µg/mL (≈ 76 µM)
K. pneumoniae ATCC 10031
  MIC: 2 µg/mL (≈ 2.38 µM)
[13]
  MIC: 32 µg/mL (≈ 38 µM)
P. aeruginosa MP-7 PAO1
  MIC: 32 µg/mL (≈ 38 µM)
E. faecalis ATCC 29212
  MIC: < 0.03 µg/mL
[14]
  MIC: 4 µg/mL (≈ 4.75 µM)
